Measured values published in US20140336141A1, “MAO-B INHIBITORS DERIVED FROM THE ONE-CARBON CYCLE” (RANDOX LABORATORIES LTD., priority 2011, published 2014).

Tests used:
[1] = tested on: Mao-B; assay: Mao-B protein levels by Western blot in differentiated SH-SY5Y cells; format: cell-based; settings: for Densitometric quantification Exp. 2 / Densitometric quantification Exp. 3 / Densitometric quantification Exp. 1: Mao-B Western blot band signal, Aza 625 nM, SAM 25 μM, Vit B6 5 μg/ml, Vit B12 7.5 μg/ml; for Densitometric quantification Exp. 2 / Densitometric quantification Exp. 3 / % MAO-B of untreated cells Exp. 2 / % MAO-B of untreated cells Exp. 3 / Densitometric quantification Exp. 1 / % MAO-B of untreated cells Exp. 1: differentiated SH-SY5Y cells treated Days 8 to 12; for % MAO-B of untreated cells Exp. 2 / % MAO-B of untreated cells Exp. 3 / % MAO-B of untreated cells Exp. 1: untreated set 100%; for % MAO-B of untreated cells Average: differentiated SH-SY5Y cells, average of the experiments
Method: The neuroblastoma cell line SH-SY5Y was seeded at 110,000 cell/6-well. Neuronal differentiation treatment was started on the next day (=Day 0) by addition of 10 μM retinoic acid every second day until Day 6. On Day 8 differentiation treatment was switched to 4 μM uridine (Ur), 5 μM 5-fluoro-2′-deoxyuridine FdUr), and 1 μM cytosine beta-D-arabinofuranoside (araC). During mitotic inhibitor addition (=Days 8 to 12) cells were left untreated or treated with 625 nM 5-aza-2′-deoxycytidine (Aza), 25 μM S-adenosylmethionine (SAM), 5 μg/ml vitamin B6 (Vit B6), 7.5 μg/ml vitamin B12 (Vit B12), or 5 μg/ml vitamin B6/7.5 μg/ml vitamin B12. On Day 12 cells were harvested. Cells were washed twice with chilled PBS, scraped off in PBS/protease inhibitors, and centrifuged at 15000×g at 4 C for 10 min. The pellet was reconstituted in 150 μl PBS/protease inhibitors and precipitated with 50 μl trichloroacetic acid/80 mMDTT for 1 hour at 4 C. After centrifugation at 15000×g at 4 C for 10 min, precipitated protein was washed four times with 0.6 ml acetone/20 mM DTT and stored at −80 C until analysis. The dried total protein pellet was reconstituted in 7M urea/2M thiourea/4% CHAPS buffer and the protein concentration was determined using the Coomassie Plus (Bradford) Protein Assay (Pierce, Thermo Scientific). Equal protein amounts were loaded onto an 11% SDS polyacrylamide gel and proteins were blotted onto nitrocellulose. Mao-B was detected using a polyclonal Goat anti-Mao-B antibody (sc18401, Santa Cruz) and DyLight 649 AffiniPureF(ab′)2 Fragment Donkey Anti-Goat IgGgamma (Jackson ImmunoResearch Laboratories, Inc.), and a Typhoon scanner (GE Healthcare Life Sciences). Results were analysed with the software ImageJ. The signals of the Mao-B bands of SAM treated and untreated differentiated SH-SY5Y cells were compared and the latter was set 100%.

[2] = tested on: Mao-B; assay: MAO-B protein expression by Western blot in HepG2 cells, normalised against GAPDH and 14-3-3 gamma; format: cell-based; settings: 10 μM 5-aza-2-deoxycytidine for 1, 2, or 3 days; FIG. 3
Method: HepG2 cells were grown in DMEM low glucose/10% FBS and were treated with 10 μM 5-aza-2-deoxycytidine for 1, 2, or 3 days. Untreated HepG2 cells served as controls. Cells were scraped in precipitation buffer (PBS/25% trichloroacetic acid/20 mM DTT/protease inhibitors) at 4 C and proteins were precipitated for 1 hour at 4 C. Precipitated proteins were pelleted at 15000 rpm for 10 min (4 C) and washed 4 times with 700 μl acetone/20 mM DTT. Before analysis by SDS PAGE and Western blot, the precipitated samples were reconstituted in DIGE buffer/1% pH 4-7 ampholyte. Six parallel experiments were performed. […] Two normalisation compounds were used: GAPDH (glyceraldehyde 3-phosphate dehydrogenase) and 14-3-3 gamma (protein kinase C inhibitor protein 1). Each Mao-B band signal was divided by the respective GAPDH or 14-3-3 gamma band signal to achieve normalisation.
HepG2 cells were grown in DMEM low glucose/2% FBS and were treated with vitamin B6 (300 μg/ml) and vitamin B12 (74.4 μg/ml) for 1, 3, 4, 5 and 7 days. Untreated HepG2 cells served as controls. Cells were harvested and analysed by Western blot.

[3] = tested on: platelet MAO activity; settings: LOAD patients, vitamin B12 therapy; cited from earlier work

Row | Compound | Densitometric quantification Exp. 2 [1] | Densitometric quantification Exp. 3 [1] | % MAO-B of untreated cells Exp. 2 [1] [%] | % MAO-B of untreated cells Exp. 3 [1] [%] | % MAO-B of untreated cells Average [1] [%] | MAO-B protein expression in HepG2 cells [2] | Densitometric quantification Exp. 1 [1] | % MAO-B of untreated cells Exp. 1 [1] [%] | platelet MAO activity [3]
1 | Nc1ncn([C@H]2C[C@H](O)[C@@H](CO)O2)c(=O)n1 [Aza, 5-aza-2′-deoxycytidine] | 1116.9 | 973.5 | 100 | 87 | 94 | increased levels of MAO-B are expressed | – | – | –
2 | C[S+](CC[C@H](N)C(=O)O)C[C@H]1O[C@@H](n2cnc3c(N)ncnc32)[C@H](O)[C@@H]1O (stereo partly shown) [SAM, S-adenosylmethionine] | 990.4 | 1006.8 | 89 | 90 | 80 | – | 2482.6 | 60 | –
3 | vitamin B6 [Vit B6] | 1008.1 | 1004.8 | 90 | 90 | 93 | – | 4087.1 | 99 | –
4 | vitamin B12 [Vit B12] | 857.8 | 695.3 | 77 | 62 | 77 | – | 3823.5 | 93 | significantly reduced
